# Assay results published in patent US9029559B2, “Substituted 3-heteroaroylamino-propionic acid derivatives and their use as pharmaceuticals” (SANOFI, priority 2011, dated 2015).
# Biological target: Recombinant human cathepsin A (Homo sapiens (Human), UniProt P10619)
# Experiment: Cathepsin A inhibitory activity (cleavage of Bodipy FL-labeled bradykinin, microfluidic capillary electrophoresis)
# Format: biochemical
# Conditions: read-out: Activity (Cathepsin A inhibitory activity, IC50)
# Procedure: Pharmacological Tests a) Cathepsin A Inhibitory Activity
# Briefly, cathepsin A was incubated at 10 μg/ml with cathepsin L at 1 μg/ml in activation buffer (25 mM 2-(morpholin-4-yl)-ethanesulfonic acid (MES), pH 6.0, containing 5 mM dithiothreitol (DTT)) for 15 min at 37° C.
# The activated cathepsin A was diluted in assay buffer (25 mM MES, pH 5.5, containing 5 mM DTT) and mixed with the test compound (dissolved in assay buffer containing (v/v) 3% DMSO) or, in the control experiments, with the vehicle in a multiple assay plate. After incubation for 15 min at room temperature, as substrate then bradykinin carrying an N-terminal ®Bodipy FL (4,4-difluoro-5,7-dimethyl-4-bora-3a,4a-diaza-s-indacene-3-propionyl) label (JPT Peptide Technologies GmbH; dissolved in assay buffer) was added to the mixture. […] After incubation for 15 min at room temperature the reaction was stopped by the addition of stop buffer (130 mM 2-(4-(2-hydroxy-ethyl)-piperazin-1-yl)-ethanesulfonic acid, pH 7.4, containing (v/v) 0.013% ®Triton X-100, 0.13% Coating Reagent 3 (Caliper Life Sciences), 6.5% DMSO and 20 μM ebelactone B (Sigma, #E0886)).
# Uncleaved substrate and product were then separated by a microfluidic capillary electrophoresis on a LabChip® 3000 Drug Discovery System (12-Sipper-Chip; Caliper Life Sciences) and quantified by determination of the respective peak areas. Substrate turnover was calculated by dividing product peak area by the sum of substrate and product peak areas, and the enzyme activity and the inhibitory effect of the test compound thus quantified.
# Recombinant human cathepsin A, sequence (P10619 29-326): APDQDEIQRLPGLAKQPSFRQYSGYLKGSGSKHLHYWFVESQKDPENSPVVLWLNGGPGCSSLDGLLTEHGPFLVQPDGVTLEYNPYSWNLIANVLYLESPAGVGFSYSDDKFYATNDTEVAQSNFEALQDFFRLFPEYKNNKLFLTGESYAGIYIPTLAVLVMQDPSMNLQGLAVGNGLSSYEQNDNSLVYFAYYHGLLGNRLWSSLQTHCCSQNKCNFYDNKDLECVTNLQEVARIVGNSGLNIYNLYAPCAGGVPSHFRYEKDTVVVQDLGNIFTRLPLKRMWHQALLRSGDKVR
# Recombinant human cathepsin A, sequence (P10619 327-480): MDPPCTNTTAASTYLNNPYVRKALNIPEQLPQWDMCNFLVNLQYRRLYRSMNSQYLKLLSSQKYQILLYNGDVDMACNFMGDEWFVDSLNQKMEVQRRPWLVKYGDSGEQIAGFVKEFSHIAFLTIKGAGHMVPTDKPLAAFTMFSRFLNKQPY
row,SMILES,IC50 [µM]
1,O=C(O)C[C@H](NC(=O)c1cccc(-c2ccccc2Cl)n1)c1cccc(Cl)c1Cl [compound 610],2.32
2,O=C(O)C[C@H](NC(=O)c1cccc(-c2ccccc2F)n1)c1ccc(C(F)(F)F)cc1 [compound 608],6.27

# Same assay, conditions: read-out: Activity (IC50, cathepsin A inhibition)
row,SMILES,IC50 [µM]
1,Cc1cccc([C@H](CC(=O)O)NC(=O)c2cccc(-c3ccccc3F)n2)c1 [compound 560],12.9
2,O=C(O)CC(NC(=O)c1cnccn1)c1ccccc1Cl (stereo not shown) [compound 521],12.8
3,O=C(O)CC(NC(=O)c1ccc(Oc2ccccc2)nc1)c1ccccc1Cl (stereo not shown) [compound 585],8.67
4,COc1cc(C(=O)NC(CC(=O)O)c2ccccc2Cl)ccn1 (stereo not shown) [compound 536],5.08
5,O=C(O)CC(NC(=O)c1ncccc1F)c1ccccc1Cl (stereo not shown) [compound 530],5.27
6,COc1cccc(-c2cccc(C(=O)NC(CC(=O)O)c3ccccc3Cl)n2)c1 (stereo not shown) [compound 596],5.77
7,O=C(O)C[C@H](NC(=O)c1cccc(-c2ccccc2Cl)n1)c1ccccc1 [compound 567],2.18
8,C[C@@](CC(=O)O)(NC(=O)c1cccc(-c2ccccc2Cl)n1)c1ccccc1 [compound 581],5.76
9,Cc1ccc([C@H](CC(=O)O)NC(=O)c2cccc(-c3ccccc3F)n2)cc1 [compound 559],4.38
10,COc1ccc(C(=O)NC(CC(=O)O)c2ccccc2Cl)nc1Cl (stereo not shown) [compound 550],1.08
11,O=C(O)CC(NC(=O)c1cc(-c2ccccc2)ccn1)c1ccccc1Cl (stereo not shown) [compound 565],4.07
12,O=C(O)CC(NC(=O)c1ccc2cnccc2n1)c1ccccc1Cl (stereo not shown) [compound 544],11.1
13,O=C(O)CC(NC(=O)c1cccc(-c2ccccc2F)n1)c1ccccc1Cl (stereo not shown) [compound 589],4.89

# Same assay, conditions: read-out: Activity (IC50, cathepsin A inhibitory activity)
row,SMILES,IC50 [µM]
1,COc1ccc(C(=O)N[C@@H](CC(=O)O)c2ccccc2Cl)nc1-c1cc(F)cc(F)c1 [compound 439],2.39
2,COc1ccc(OC)c(-c2nc(C(=O)N[C@@H](CC(=O)O)c3ccccc3Cl)ccc2OC)c1 [compound 461],8.31
3,Cc1cccc(C(=O)N[C@@H](CC(=O)O)c2ccccc2C)n1 [compound 10],1.24
4,Cc1ccccc1[C@H](CC(=O)O)NC(=O)c1cc(N(C)C)nc(N(C)C)n1 [compound 13],10.1
5,COc1ccc(C(=O)N[C@@H](CC(=O)O)c2ccccc2F)nc1-c1ccc(C)cc1 [compound 260],5.18
6,Cc1ccccc1[C@H](CC(=O)O)NC(=O)c1ccc2cnccc2n1 [compound 17],3.09
7,COc1ccc(C(=O)N[C@@H](CC(=O)O)c2ccc(C)cc2)nc1-c1ccc(F)c(C)c1 [compound 225],3.26
8,COc1ccc(C(=O)N[C@@H](CC(=O)O)c2ccccc2F)nc1-c1cccnc1 [compound 284],> 10
9,COc1ccc(C(C)(C)C)cc1-c1nc(C(=O)N[C@@H](CC(=O)O)c2ccccc2Cl)ccc1OC [compound 475],> 10
10,COc1ccc(C(=O)N[C@@H](CC(=O)O)c2ccccc2F)nc1-c1cccc(C(C)=O)c1 [compound 275],8.54
11,COc1ncc(C(=O)N[C@@H](CC(=O)O)c2ccccc2C)cc1-c1cccc(F)c1 [compound 414],8.07
12,Cc1ccccc1[C@H](CC(=O)O)NC(=O)c1nc(F)ccc1F [compound 53],2.83
13,COc1ccc(C(=O)N[C@@H](CC(=O)O)c2ccccc2Cl)nc1-c1ccccc1C(=O)N(C)C [compound 454],2.5
14,COc1ccc(C(=O)N[C@@H](CC(=O)O)c2ccccc2Cl)nc1-c1cccc(-c2ccccc2)c1 [compound 436],2.97
15,Cc1ccccc1[C@H](CC(=O)O)NC(=O)c1cncc(-c2ccc(F)cc2F)c1 [compound 73],3.25
16,"COc1ccc(C(=O)N[C@@H](CC(=O)O)c2ccccc2C)nc1-c1cccc(-c2nnc(C)o2)c1 [compound 471, (S)-3-({5-Methoxy-6-[3-(5-methyl-[1,3,4]oxadiazol-2-yl)-phenyl]-pyridine-2-carbonyl}-amino)-3-o-tolyl-propionic acid]",4.23
17,COc1ccc(C(=O)N[C@@H](CC(=O)O)c2ccccc2Cl)nc1-c1cc(C)cc(Cl)c1 [compound 483],9.49
18,COc1ncc(C(=O)N[C@@H](CC(=O)O)c2ccccc2C)cc1-c1ccccc1F [compound 418],1.08

row,SMILES,IC50 [µM]
1,COc1ccc(C(=O)N[C@@H](CC(=O)O)c2ccccc2C)nc1-c1cc(C)cnc1Cl [compound 469],5.63
2,Cc1ccccc1[C@H](CC(=O)O)NC(=O)c1cncc(-c2ccccc2C(F)(F)F)c1 [compound 66],4.29
3,COc1ccc(C(=O)N[C@@H](CC(=O)O)c2ccc(C)cc2)nc1-c1ccc(C)c(F)c1 [compound 223],1.29
4,COc1ccc(C(=O)N[C@@H](CC(=O)O)c2ccc(C)cc2)nc1-c1cccc(-c2nnc(C)o2)c1 [compound 249],8.71
5,Cc1ccccc1[C@H](CC(=O)O)NC(=O)c1cncc(-c2ccc(Cl)cc2Cl)c1 [compound 61],5.14
6,Cc1ccccc1[C@H](CC(=O)O)NC(=O)c1ncccc1F [compound 33],3.42
7,Cc1ccccc1[C@H](CC(=O)O)NC(=O)c1ccc(Oc2ccccc2)nc1 [compound 46],9.94
8,Cc1ccccc1[C@H](CC(=O)O)NC(=O)c1cc(CC(C)C)nc(N)n1 [compound 52],3.68
9,COc1ccc(F)c(-c2cncc(C(=O)N[C@@H](CC(=O)O)c3ccccc3C)c2)c1 [compound 88],8.51
10,COc1ccc(C(=O)N[C@@H](CC(=O)O)c2ccccc2F)nc1-c1ccc(C)cc1C [compound 291],4.02
11,Cc1ccccc1[C@H](CC(=O)O)NC(=O)c1cc(N2CCOCC2)ccn1 [compound 50],7.73
12,COc1ccc(C(=O)N[C@@H](CC(=O)O)c2ccccc2F)nc1-c1ccc(C#N)s1 [compound 283],5.4
13,COc1ccc(C(=O)N[C@@H](CC(=O)O)c2ccccc2Cl)nc1-c1ccc(C)cc1C [compound 450],1.6
14,COc1ccc(-c2cccc(C(=O)N[C@@H](CC(=O)O)c3ccccc3C)n2)cc1 [compound 45],3.09
15,COc1ccc(C(=O)N[C@@H](CC(=O)O)c2ccccc2F)nc1-c1cccc(F)c1 [compound 266],1.26
16,COc1ccc(C(=O)N[C@@H](CC(=O)O)c2ccccc2F)nc1-c1cc(C(F)(F)F)ccc1F [compound 304],3.99
17,Cc1ccccc1[C@H](CC(=O)O)NC(=O)c1cncc(-c2cccc(F)c2F)c1 [compound 79],5.01
18,COc1ccc(C(=O)N[C@@H](CC(=O)O)c2ccccc2F)nc1-c1ccc(F)c(F)c1 [compound 280],3.12

# Same assay, conditions: read-out: Activity [μM] (IC50, cathepsin A inhibitory activity)
row,SMILES,IC50 [µM]
1,"COc1ncc(C(=O)N[C@@H](CC(=O)O)c2ccccc2Cl)cc1-c1ccccc1 [compound 344, (S)-3-(2-Chloro-phenyl)-3-[(6-methoxy-5-phenyl-pyridine-3-carbonyl)-amino]-propionic acid]",3.49
2,Cc1ccccc1[C@H](CC(=O)O)NC(=O)c1cccc(-c2ccc(C#N)cc2)n1 [compound 146],2.16
3,COc1ccccc1-c1cc(C(=O)N[C@@H](CC(=O)O)c2ccccc2Cl)cnc1OC [compound 394],3.76
4,"Cc1ccccc1[C@H](CC(=O)O)NC(=O)c1cccc(-c2cccc(C(C)(C)O)c2)n1 [compound 176, (S)-3-({6-[3-(1-Hydroxy-1-methyl-ethyl)-phenyl]-pyridine-2-carbonyl}-amino)-3-o-tolyl-propionic acid]",3.32
5,COc1ccc(C(=O)N[C@@H](CC(=O)O)c2ccccc2C)nc1-c1ccccc1C(=O)N(C)C [compound 374],2.48
6,COc1ccc(C(=O)N[C@@H](CC(=O)O)c2ccccc2C)nc1-c1cccc(C(C)=O)c1 [compound 360],2.42
7,COc1ccc(-c2cc(C(=O)N[C@@H](CC(=O)O)c3ccccc3Cl)cnc2OC)cc1 [compound 387],9.43
8,Cc1ccccc1[C@H](CC(=O)O)NC(=O)c1cccc(-c2cc(F)cc(F)c2)n1 [compound 150],1.02
9,COc1ccc(C(=O)N[C@@H](CC(=O)O)c2ccccc2Cl)nc1-c1cccc(Cl)c1 [compound 340],1.51
10,COc1ccc(C(=O)N[C@@H](CC(=O)O)c2ccc(C)cc2)nc1-c1cccc(C(F)(F)F)c1 [compound 181],5
11,COc1ccc(C(=O)N[C@@H](CC(=O)O)c2ccc(C)cc2)nc1-c1cccc(C)c1 [compound 197],1.71
12,COc1cccc(-c2cc(C(=O)N[C@@H](CC(=O)O)c3ccccc3Cl)cnc2OC)c1 [compound 391],10.6
13,COc1ccc(C(=O)N[C@@H](CC(=O)O)c2ccccc2C)nc1-c1ccc(C)c(F)c1 [compound 370],1.58
14,Cc1ccccc1[C@H](CC(=O)O)NC(=O)c1cccc(-c2ccc(Cl)cc2)n1 [compound 136],4.85
15,COc1ccc(C(=O)N[C@@H](CC(=O)O)c2ccccc2Cl)nc1-c1cccc(C(F)(F)F)c1 [compound 329],3.74
16,COc1ccc(C(=O)N[C@@H](CC(=O)O)c2ccccc2C)nc1-c1cc(C)cc(Cl)c1 [compound 378],7.49
17,COc1ccc(C(=O)N[C@@H](CC(=O)O)c2ccccc2C)nc1-c1ccc2ccn(C)c2c1 [compound 380],5.33
18,Cc1ccccc1[C@H](CC(=O)O)NC(=O)c1cccc(-c2ccc(F)c(Cl)c2)n1 [compound 134],3.62
19,COc1ccc(C(=O)N[C@@H](CC(=O)O)c2ccc(C)cc2)nc1-c1ccc(C(C)=O)s1 [compound 210],7.52
20,COc1ccc(C(=O)N[C@@H](CC(=O)O)c2ccc(C)cc2)nc1-c1ccc(Cl)cc1Cl [compound 183],1.01
21,COc1ccc(C(=O)N[C@@H](CC(=O)O)c2ccccc2C)nc1-c1cccc(F)c1Cl [compound 383],1.64
22,Cc1ccc(-c2cccc(C(=O)N[C@@H](CC(=O)O)c3ccccc3C)n2)c(C)c1 [compound 162],1.43
23,Cc1ccccc1[C@H](CC(=O)O)NC(=O)c1cccc(-c2ccccc2C(F)(F)F)n1 [compound 139],1.09
24,Cc1ccccc1[C@H](CC(=O)O)NC(=O)c1cccc(-c2ccc(F)cc2F)n1 [compound 149],4.4
25,COc1ccc(C(=O)N[C@@H](CC(=O)O)c2ccc(C)cc2)nc1-c1cccc(C(C)=O)c1 [compound 203],8.35
